Earlier results, collected in US10226042B2, “Synergistic pre-emergent and post-emergent weed control compositions and methods of use thereof” (BAYER INTELLECTUAL PROPERTY GMBH, priority 2009, dated 2019).

Conditions: stated in words, no test described

SMILES	water solubility
COc1c(Cl)ccc(Cl)c1C(=O)O [dicamba]	water soluble
O=C(O)COc1ccc(Cl)cc1Cl [2,4-D]	water soluble
